Laboratory results from patent US11987586B1 (TAKEDA PHARMACEUTICAL COMPANY LIMITED, priority 2022, dated 2024).

These compounds were tested against T1, human OX2 receptor (Homo sapiens, UniProt O43614) (assay: Measurement of orexin type 2 receptor agonist activity (calcium fluorescence, Fluo-4, FDSS)). Settings: 3 uM test compound; CHO cells expressing human OX2 receptor; DMSO = 0%, 10 nM orexin A (human) = 100%.
T1 construct: expressed in transfected cells
T1 sequence (O43614 1-444): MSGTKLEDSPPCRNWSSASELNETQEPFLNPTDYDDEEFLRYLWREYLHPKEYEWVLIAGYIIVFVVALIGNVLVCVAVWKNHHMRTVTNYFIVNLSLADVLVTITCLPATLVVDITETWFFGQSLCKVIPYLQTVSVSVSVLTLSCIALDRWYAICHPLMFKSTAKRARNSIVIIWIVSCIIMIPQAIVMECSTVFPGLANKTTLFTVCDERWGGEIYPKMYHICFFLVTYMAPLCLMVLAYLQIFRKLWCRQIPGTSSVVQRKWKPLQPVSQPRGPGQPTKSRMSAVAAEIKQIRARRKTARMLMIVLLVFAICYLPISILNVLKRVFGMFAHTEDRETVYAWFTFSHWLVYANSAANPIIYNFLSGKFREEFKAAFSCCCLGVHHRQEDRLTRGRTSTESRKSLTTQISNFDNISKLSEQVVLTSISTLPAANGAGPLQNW
Format: cell-based
Method in brief: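 Agonist activity (%) was normalised to the response to 10 nM final human orexin A (100%) and to the DMSO vehicle (0%). The response was measured as the Fluo-4 calcium signal, read kinetically over 1 min 40 s after compound addition to Fluo-4/probenecid-loaded stable CHO-K1 clones expressing human OX2 (aa 1-444).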

SMILES | OX2R agonist activity (3 uM, %) [%]
O=C1N(c2noc3cccc(-c4c(F)cccc4F)c23)CC[C@H]2N1C[C@@H](NS(=O)(=O)CF)C2(F)F [Example 284, N-{(4aR,6R)-2-[4-(2,6-difluorophenyl)-1,2-benzoxazol-3-yl]-5,5-difluoro-1-oxooctahydropyrrolo[1,2-c]pyrimidin-6-yl}-1-fluoromethanesulfonamide] | 109
O=C1N(c2noc3cccc(-c4c(F)cccc4F)c23)CC[C@H]2N1C[C@@H](NS(=O)(=O)C1CC1)C2(F)F [Example 285, N-{(4aR,6R)-2-[4-(2,6-difluorophenyl)-1,2-benzoxazol-3-yl]-5,5-difluoro-1-oxooctahydropyrrolo[1,2-c]pyrimidin-6-yl}cyclopropanesulfonamide] | 105
Cc1cc2onc(-n3cc4n(c3=O)C[C@@H](NS(=O)(=O)N(C)C)C4(F)F)c2c(-c2c(F)cccc2F)n1 [Example 286, N′-{(6R)-2-[4-(2,6-difluorophenyl)-6-methyl[1,2]oxazolo[4,5-c]pyridin-3-yl]-7,7-difluoro-3-oxo-2,5,6,7-tetrahydro-3H-pyrrolo[1,2-c]imidazol-6-yl}-N,N-dimethylsulfuric diamide] | 105
O=C1N(c2noc3cc(F)cc(-c4c(F)cccc4F)c23)C[C@H]2N1C[C@@H](NS(=O)(=O)CF)C2(F)F [Example 287, N-{(6R,7aR)-2-[4-(2,6-difluorophenyl)-6-fluoro-1,2-benzoxazol-3-yl]-7,7-difluoro-3-oxohexahydro-1H-pyrrolo[1,2-c]imidazol-6-yl}-1-fluoromethanesulfonamide] | 101
O=c1n(-c2noc3cc(F)cc(-c4c(F)cc(F)cc4F)c23)cc2n1C[C@@H](NS(=O)(=O)CF)C2(F)F [Example 288, N-{(6R)-7,7-difluoro-2-[6-fluoro-4-(2,4,6-trifluorophenyl)-1,2-benzoxazol-3-yl]-3-oxo-2,5,6,7-tetrahydro-3H-pyrrolo[1,2-c]imidazol-6-yl}-1-fluoromethanesulfonamide] | 101
CS(=O)(=O)N[C@@H]1CN2C(=O)N(c3noc4cccc(-c5ccc(F)cc5F)c34)CC[C@@H]2C1(F)F [Example 290, N-{(4aR,6R)-2-[4-(2,4-difluorophenyl)-1,2-benzoxazol-3-yl]-5,5-difluoro-1-oxooctahydropyrrolo[1,2-c]pyrimidin-6-yl}methanesulfonamide] | 106
CS(=O)(=O)N[C@@H]1CN2C(=O)N(c3noc4cccc(-c5ccccc5Cl)c34)CC[C@@H]2C1(F)F [Example 291, N-{(4aR,6R)-2-[4-(2-chlorophenyl)-1,2-benzoxazol-3-yl]-5,5-difluoro-1-oxooctahydropyrrolo[1,2-c]pyrimidin-6-yl}methanesulfonamide] | 106
CS(=O)(=O)N[C@@H]1CN2C(=O)N(c3noc4cccc(-c5cc(F)ccc5F)c34)CC[C@@H]2C1(F)F [Example 292, N-{(4aR,6R)-2-[4-(2,5-difluorophenyl)-1,2-benzoxazol-3-yl]-5,5-difluoro-1-oxooctahydropyrrolo[1,2-c]pyrimidin-6-yl}methanesulfonamide] | 106
O=c1n(-c2noc3ccc(F)c(-c4c(F)cc(F)cc4F)c23)cc2n1C[C@@H](NS(=O)(=O)CF)C2(F)F [Example 293, N-{(6R)-7,7-difluoro-2-[5-fluoro-4-(2,4,6-trifluorophenyl)-1,2-benzoxazol-3-yl]-3-oxo-2,5,6,7-tetrahydro-3H-pyrrolo[1,2-c]imidazol-6-yl}-1-fluoromethanesulfonamide] | 113
COc1cc(-c2c(F)cc(F)cc2F)c2c(N3CC[C@H]4N(C[C@@H](NS(C)(=O)=O)C4(F)F)C3=O)noc2n1 [Example 294, N-{(4aR,6R)-5,5-difluoro-2-[6-methoxy-4-(2,4,6-trifluorophenyl)[1,2]oxazolo[5,4-b]pyridin-3-yl]-1-oxooctahydropyrrolo[1,2-c]pyrimidin-6-yl}methanesulfonamide] | 104
CS(=O)(=O)N[C@@H]1CN2C(=O)N(c3noc4cc(F)cc(-c5ncc(F)cc5F)c34)CC[C@@H]2C1(F)F [Example 295, N-{(4aR,6R)-2-[4-(3,5-difluoropyridin-2-yl)-6-fluoro-1,2-benzoxazol-3-yl]-5,5-difluoro-1-oxooctahydropyrrolo[1,2-c]pyrimidin-6-yl}methanesulfonamide] | 113
CS(=O)(=O)N[C@@H]1CN2C(=O)N(c3noc4cc(OC(F)F)cc(-c5c(F)cc(F)cc5F)c34)CC[C@@H]2C1(F)F [Example 296, N-{(4aR,6R)-2-[6-(difluoromethoxy)-4-(2,4,6-trifluorophenyl)-1,2-benzoxazol-3-yl]-5,5-difluoro-1-oxooctahydropyrrolo[1,2-c]pyrimidin-6-yl}methanesulfonamide] | 102
O=C1N(c2noc3cc(F)c(F)c(-c4c(F)cc(F)cc4F)c23)CC[C@H]2N1C[C@@H](NS(=O)(=O)CF)C2(F)F [Example 297, N-{(4aR,6R)-2-[5,6-difluoro-4-(2,4,6-trifluorophenyl)-1,2-benzoxazol-3-yl]-5,5-difluoro-1-oxooctahydropyrrolo[1,2-c]pyrimidin-6-yl}-1-fluoromethanesulfonamide] | 107
CCS(=O)(=O)N[C@@H]1CN2C(=O)N(c3noc4cc(C(F)F)cc(-c5c(F)cc(F)cc5F)c34)C[C@@H]2C1(F)F [Example 298, N-{(6R,7aR)-2-[6-(difluoromethyl)-4-(2,4,6-trifluorophenyl)-1,2-benzoxazol-3-yl]-7,7-difluoro-3-oxohexahydro-1H-pyrrolo[1,2-c]imidazol-6-yl}ethanesulfonamide] | 105
CCOc1cc(-c2c(F)cccc2F)c2c(N3CC[C@H]4N(C[C@@H](NS(=O)(=O)CC)C4(F)F)C3=O)noc2c1 [Example 299, N-{(4aR,6R)-2-[4-(2,6-difluorophenyl)-6-ethoxy-1,2-benzoxazol-3-yl]-5,5-difluoro-1-oxooctahydropyrrolo[1,2-c]pyrimidin-6-yl}ethanesulfonamide] | 104
CCOc1cc(-c2c(F)cccc2F)c2c(N3CC[C@H]4N(C[C@@H](NS(=O)(=O)C5CC5)C4(F)F)C3=O)noc2c1 [Example 300, N-{(4aR,6R)-2-[4-(2,6-difluorophenyl)-6-ethoxy-1,2-benzoxazol-3-yl]-5,5-difluoro-1-oxooctahydropyrrolo[1,2-c]pyrimidin-6-yl}cyclopropanesulfonamide] | 105
CNS(=O)(=O)N[C@@H]1Cn2c(cn(-c3noc4ccc(F)c(-c5c(F)cc(F)cc5F)c34)c2=O)C1(F)F [Example 301, N-{(6R)-7,7-difluoro-2-[5-fluoro-4-(2,4,6-trifluorophenyl)-1,2-benzoxazol-3-yl]-3-oxo-2,5,6,7-tetrahydro-3H-pyrrolo[1,2-c]imidazol-6-yl}-N′-methylsulfuric diamide] | 98
CNS(=O)(=O)N[C@@H]1Cn2c(cn(-c3noc4cc(C)nc(-c5c(F)cccc5F)c34)c2=O)C1(F)F [Example 302, N-{(6R)-2-[4-(2,6-difluorophenyl)-6-methyl[1,2]oxazolo[4,5-c]pyridin-3-yl]-7,7-difluoro-3-oxo-2,5,6,7-tetrahydro-3H-pyrrolo[1,2-c]imidazol-6-yl}-N′-methylsulfuric diamide] | 103
CCS(=O)(=O)N[C@@H]1CN2C(=O)N(c3noc4cc(OC(F)F)cc(-c5c(F)cc(F)cc5F)c34)CC[C@@H]2C1(F)F [Example 303, N-{(4aR,6R)-2-[6-(difluoromethoxy)-4-(2,4,6-trifluorophenyl)-1,2-benzoxazol-3-yl]-5,5-difluoro-1-oxooctahydropyrrolo[1,2-c]pyrimidin-6-yl}ethanesulfonamide] | 103
CCS(=O)(=O)N[C@@H]1CN2C(=O)N(c3noc4cc(F)c(F)c(-c5c(F)cc(F)cc5F)c34)CC[C@@H]2C1(F)F [Example 304, N-{(4aR,6R)-2-[5,6-difluoro-4-(2,4,6-trifluorophenyl)-1,2-benzoxazol-3-yl]-5,5-difluoro-1-oxooctahydropyrrolo[1,2-c]pyrimidin-6-yl}ethanesulfonamide] | 117
O=C1N(c2noc3cc(F)c(F)c(-c4c(F)cc(F)cc4F)c23)CC[C@H]2N1C[C@@H](NS(=O)(=O)C1CC1)C2(F)F [Example 305, N-{(4aR,6R)-2-[5,6-difluoro-4-(2,4,6-trifluorophenyl)-1,2-benzoxazol-3-yl]-5,5-difluoro-1-oxooctahydropyrrolo[1,2-c]pyrimidin-6-yl}cyclopropanesulfonamide] | 113
O=c1n(-c2noc3cc(C(F)F)cc(-c4c(F)cccc4F)c23)cc2n1C[C@@H](NS(=O)(=O)CF)C2(F)F [Example 306, N-{(6R)-2-[6-(difluoromethyl)-4-(2,6-difluorophenyl)-1,2-benzoxazol-3-yl]-7,7-difluoro-3-oxo-2,5,6,7-tetrahydro-3H-pyrrolo[1,2-c]imidazol-6-yl}-1-fluoromethanesulfonamide] | 101
CCOc1cc(-c2c(F)cc(F)cc2F)c2c(N3CC[C@H]4N(C[C@@H](NS(=O)(=O)CC)C4(F)F)C3=O)noc2c1 [Example 307, N-{(4aR,6R)-2-[6-ethoxy-4-(2,4,6-trifluorophenyl)-1,2-benzoxazol-3-yl]-5,5-difluoro-1-oxooctahydropyrrolo[1,2-c]pyrimidin-6-yl}ethanesulfonamide] | 101
